Measured values from the supplement of paper PMC10733146.

What was measured:
Test in all cases: viability relative to DMSO control (fraction); higher = less drug effect (more viable cells)
Conditions in all cases: 48 h
Obatoclax mesylate = compound: COC1=CC(c2cc3ccccc3[nH]2)=N/C1=C\c1[nH]c(C)cc1C [Obatoclax mesylate]
Method in brief: (§1)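 The cells were primary mononuclear tumour cells, either fresh or cryopreserved, isolated by Ficoll from blood or bone marrow or derived from processed lymph node. Each well of a 384-well plate received 4 × 10^4 cells onto compounds pre-plated at five concentrations, with one well per concentration. The medium was RPMI-1640 with penicillin/streptomycin, L-glutamine and human serum, and plates stood at 37 °C and 5% CO2 for 48 h. Viability is reported as CellTiter-Glo luminescence relative to the median of 16 inner DMSO wells.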

TMP269 = compound: O=C(NCC1(c2nc(-c3ccccc3)cs2)CCOCC1)c1cccc(-c2noc(C(F)(F)F)n2)c1 [TMP269]
Method in brief: as §1

ERK5-IN-1 = compound: CCOc1cc(C(=O)N2CCC(N3CCN(C)CC3)CC2)ccc1Nc1ncc2c(n1)N(C1CCCC1)c1ccccc1C(=O)N2C [ERK5-IN-1]
Method in brief: as §1

AZD7762 = compound: NC(=O)Nc1cc(-c2cccc(F)c2)sc1C(=O)N[C@H]1CCCNC1 [AZD7762]
Method in brief: as §1

Imatinib = compound: Cc1ccc(NC(=O)c2ccc(CN3CCN(C)CC3)cc2)cc1Nc1nccc(-c2cccnc2)n1 [Imatinib]
Method in brief: as §1

Iniparib = compound: NC(=O)c1ccc(I)c([N+](=O)[O-])c1 [Iniparib]
Method in brief: as §1

Pralatrexate = compound: C#CCC(Cc1cnc2nc(N)nc(N)c2n1)c1ccc(C(=O)N[C@@H](CCC(=O)O)C(=O)O)cc1 [Pralatrexate]
Method in brief: as §1

Cladribine = compound: Nc1nc(Cl)nc2c1ncn2[C@H]1C[C@H](O)[C@@H](CO)O1 [Cladribine]
Method in brief: as §1

Birinapant = compound: CC[C@H](NC(=O)[C@H](C)NC)C(=O)N1C[C@@H](O)C[C@H]1Cc1c(-c2[nH]c3cc(F)ccc3c2C[C@@H]2C[C@H](O)CN2C(=O)[C@H](CC)NC(=O)[C@H](C)NC)[nH]c2cc(F)ccc12 [Birinapant]
Method in brief: as §1

MLN-120B = compound: COc1c(Cl)cc2c([nH]c3cnccc32)c1NC(=O)c1cccnc1C [MLN-120B]
Method in brief: as §1

Vorinostat = compound: O=C(CCCCCCC(=O)Nc1ccccc1)NO [Vorinostat]
Method in brief: as §1

Ribociclib = compound: CN(C)C(=O)c1cc2cnc(Nc3ccc(N4CCNCC4)cn3)nc2n1C1CCCC1 [Ribociclib]
Method in brief: as §1

Panobinostat = compound: Cc1[nH]c2ccccc2c1CCNCc1ccc(/C=C/C(=O)NO)cc1 [Panobinostat]
Method in brief: as §1

Idarubicin = compound: CC(=O)[C@]1(O)Cc2c(O)c3c(c(O)c2[C@@H](O[C@H]2C[C@H](N)[C@H](O)[C@H](C)O2)C1)C(=O)c1ccccc1C3=O [Idarubicin]
Method in brief: as §1

Pentostatin = compound: OC[C@H]1O[C@@H](n2cnc3c2N=CNC[C@H]3O)C[C@@H]1O [Pentostatin]
Method in brief: as §1

primary FL patient cells (S022) was tested, and the viability (Obatoclax mesylate; 0.024 µM) was 1.04, the viability (Obatoclax mesylate; 0.12 µM) was 0.971 and the viability (Obatoclax mesylate; 0.6 µM) was 0.71. It also gave a viability (Obatoclax mesylate; 3 µM) of 0.486, a viability (Obatoclax mesylate; 15 µM) of 0.109 and a viability (TMP269; 0.024 µM) of 1.22. For the same test system, the viability (TMP269; 0.12 µM) was 0.977, the viability (TMP269; 0.6 µM) was 1.2 and the viability (TMP269; 3 µM) was 0.958. It also gave a viability (TMP269; 15 µM) of 0.915, a viability (ERK5-IN-1; 0.024 µM) of 1.02 and a viability (ERK5-IN-1; 0.12 µM) of 0.957. For the same test system, the viability (ERK5-IN-1; 0.6 µM) was 0.902, the viability (ERK5-IN-1; 3 µM) was 0.951 and the viability (ERK5-IN-1; 15 µM) was 0.544. It also gave a viability (AZD7762; 0.024 µM) of 0.724, a viability (AZD7762; 0.12 µM) of 0.79 and a viability (AZD7762; 0.6 µM) of 0.725. For the same test system, the viability (AZD7762; 3 µM) was 0.785, the viability (AZD7762; 15 µM) was 0.655 and the viability (Imatinib; 0.08 µM) was 1.06. For the same test system, the viability (Imatinib; 0.4 µM) was 1.05, the viability (Imatinib; 2 µM) was 0.946 and the viability (Imatinib; 10 µM) was 0.909. It also gave a viability (Iniparib; 0.024 µM) of 1.1, a viability (Iniparib; 0.12 µM) of 0.916 and a viability (Iniparib; 0.6 µM) of 0.945. For the same test system, the viability (Iniparib; 3 µM) was 0.937, the viability (Iniparib; 15 µM) was 0.92 and the viability (Pralatrexate; 0.024 µM) was 1. The viability (Pralatrexate; 0.12 µM) was 0.996, the viability (Pralatrexate; 0.6 µM) was 1 and the viability (Pralatrexate; 3 µM) was 1.04. It also gave a viability (Pralatrexate; 15 µM) of 1.02, a viability (Cladribine; 0.024 µM) of 0.814 and a viability (Cladribine; 0.12 µM) of 0.827. The viability (Cladribine; 0.6 µM) was 0.55, the viability (Cladribine; 3 µM) was 0.447 and the viability (Cladribine; 15 µM) was 0.333. The viability (Birinapant; 0.0008 µM) was 0.862, the viability (Birinapant; 0.004 µM) was 0.874 and the viability (Birinapant; 0.02 µM) was 0.965. For the same test system, the viability (Birinapant; 0.1 µM) was 0.884, the viability (Birinapant; 0.5 µM) was 0.903 and the viability (MLN-120B; 0.024 µM) was 0.946. The viability (MLN-120B; 0.12 µM) was 0.96, the viability (MLN-120B; 0.6 µM) was 0.916 and the viability (MLN-120B; 3 µM) was 0.896. It also gave a viability (MLN-120B; 15 µM) of 0.758, a viability (Vorinostat; 0.016 µM) of 0.992 and a viability (Vorinostat; 0.08 µM) of 0.932. It also gave a viability (Vorinostat; 0.4 µM) of 0.874, a viability (Vorinostat; 2 µM) of 0.795 and a viability (Vorinostat; 10 µM) of 0.26. It also gave a viability (Ribociclib; 0.024 µM) of 1.01, a viability (Ribociclib; 0.12 µM) of 1.01 and a viability (Ribociclib; 0.6 µM) of 1.02. The viability (Ribociclib; 3 µM) was 0.941, the viability (Ribociclib; 15 µM) was 0.737 and the viability (Panobinostat; 0.00064 µM) was 0.899. For the same test system, the viability (Panobinostat; 0.0032 µM) was 0.843, the viability (Panobinostat; 0.016 µM) was 0.514 and the viability (Panobinostat; 0.08 µM) was 0.23. For the same test system, the viability (Panobinostat; 0.4 µM) was 0.17, the viability (Idarubicin; 0.024 µM) was 0.94 and the viability (Idarubicin; 0.12 µM) was 0.509. For the same test system, the viability (Idarubicin; 0.6 µM) was 0.178, the viability (Idarubicin; 3 µM) was 0.182 and the viability (Idarubicin; 15 µM) was 0.0171. For the same test system, the viability (Pentostatin; 0.03 µM) was 1.1, the viability (Pentostatin; 0.15 µM) was 0.939 and the viability (Pentostatin; 0.75 µM) was 1.13. It also gave a viability (Pentostatin; 3.75 µM) of 0.877 and a viability (Pentostatin; 18.76 µM) of 1.02.
Test System primary AML patient cells (S006) has a viability (Obatoclax mesylate; 0.024 µM) of 1.01, a viability (Obatoclax mesylate; 0.12 µM) of 0.945 and a viability (Obatoclax mesylate; 0.6 µM) of 0.708. It also gave a viability (Obatoclax mesylate; 3 µM) of 0.405, a viability (Obatoclax mesylate; 15 µM) of 0.121 and a viability (TMP269; 0.024 µM) of 1.09. For the same test system, the viability (TMP269; 0.12 µM) was 1.03, the viability (TMP269; 0.6 µM) was 1.11 and the viability (TMP269; 3 µM) was 0.975. It also gave a viability (TMP269; 15 µM) of 0.812, a viability (ERK5-IN-1; 0.024 µM) of 1.08 and a viability (ERK5-IN-1; 0.12 µM) of 1.12. The viability (ERK5-IN-1; 0.6 µM) was 1.23, the viability (ERK5-IN-1; 3 µM) was 0.93 and the viability (ERK5-IN-1; 15 µM) was 0.58. For the same test system, the viability (AZD7762; 0.024 µM) was 0.415, the viability (AZD7762; 0.12 µM) was 0.465 and the viability (AZD7762; 0.6 µM) was 0.571. For the same test system, the viability (AZD7762; 3 µM) was 0.889, the viability (AZD7762; 15 µM) was 1.06 and the viability (Imatinib; 2 µM) was 0.988. The viability (Imatinib; 10 µM) was 0.783, the viability (Iniparib; 0.024 µM) was 1.17 and the viability (Iniparib; 0.12 µM) was 1.09. It also gave a viability (Iniparib; 0.6 µM) of 1.02, a viability (Iniparib; 3 µM) of 0.983 and a viability (Iniparib; 15 µM) of 0.682. For the same test system, the viability (Pralatrexate; 0.024 µM) was 0.998, the viability (Pralatrexate; 0.12 µM) was 0.979 and the viability (Pralatrexate; 0.6 µM) was 0.96. For the same test system, the viability (Pralatrexate; 3 µM) was 1.04, the viability (Pralatrexate; 15 µM) was 0.924 and the viability (Cladribine; 0.024 µM) was 0.267. It also gave a viability (Cladribine; 0.12 µM) of 0.136, a viability (Cladribine; 0.6 µM) of 0.119 and a viability (Cladribine; 3 µM) of 0.14. The viability (Cladribine; 15 µM) was 0.164, the viability (Birinapant; 0.0008 µM) was 0.876 and the viability (Birinapant; 0.004 µM) was 0.807. The viability (Birinapant; 0.02 µM) was 0.593, the viability (Birinapant; 0.1 µM) was 0.374 and the viability (Birinapant; 0.5 µM) was 0.237. For the same test system, the viability (MLN-120B; 0.024 µM) was 0.914, the viability (MLN-120B; 0.12 µM) was 0.921 and the viability (MLN-120B; 0.6 µM) was 0.936. The viability (MLN-120B; 3 µM) was 0.885, the viability (MLN-120B; 15 µM) was 0.724 and the viability (Vorinostat; 0.016 µM) was 1.06. It also gave a viability (Vorinostat; 0.08 µM) of 0.964, a viability (Vorinostat; 0.4 µM) of 0.916 and a viability (Vorinostat; 2 µM) of 0.651. The viability (Vorinostat; 10 µM) was 0.147, the viability (Ribociclib; 15 µM) was 0.432 and the viability (Panobinostat; 0.00064 µM) was 0.95. For the same test system, the viability (Panobinostat; 0.0032 µM) was 0.887, the viability (Panobinostat; 0.016 µM) was 0.372 and the viability (Panobinostat; 0.08 µM) was 0.114. For the same test system, the viability (Panobinostat; 0.4 µM) was 0.0851, the viability (Idarubicin; 0.024 µM) was 0.132 and the viability (Idarubicin; 0.12 µM) was 0.0658. For the same test system, the viability (Idarubicin; 0.6 µM) was 0.0381, the viability (Idarubicin; 3 µM) was 0.0276 and the viability (Idarubicin; 15 µM) was 0.0298. For the same test system, the viability (Pentostatin; 0.03 µM) was 0.922, the viability (Pentostatin; 0.15 µM) was 0.912 and the viability (Pentostatin; 0.75 µM) was 1.13. For the same test system, the viability (Pentostatin; 3.75 µM) was 1.01 and the viability (Pentostatin; 18.76 µM) was 0.857.
